Test results taken from patent US4241053A, “Novel nitrosourea compounds and process for preparing the same” (Tanabe Seiyaku Co., Ltd., priority 1978, dated 1980).

What was measured:
Leukemia L-1210 = assay: Effect on the life span of mice implanted with leukemic cells of L-1210 (Method B); format: in vivo, mice (male BDF1); details: for ILS at 6.25 mg/kg / ILS at 12.5 mg/kg / ILS at 25 mg/kg / ILS at 50 mg/kg / responders at 6.25 mg/kg / responders at 12.5 mg/kg / responders at 25 mg/kg / responders at 50 mg/kg: Mus musculus, L1210, ip, once a day for 5 days; for ILS at 6.25 mg/kg / ILS at 12.5 mg/kg / ILS at 25 mg/kg / ILS at 50 mg/kg: 120 h, read-out: ILS (Increase in Life Span); for ILS at 6.25 mg/kg / responders at 6.25 mg/kg: 6.25 mg/kg/day i.p.; for ILS at 12.5 mg/kg / responders at 12.5 mg/kg: 12.5 mg/kg/day i.p.; for ILS at 25 mg/kg / responders at 25 mg/kg: 25 mg/kg/day i.p.; for ILS at 50 mg/kg / responders at 50 mg/kg: 50 mg/kg/day i.p.; for responders at 6.25 mg/kg / responders at 12.5 mg/kg / responders at 25 mg/kg / responders at 50 mg/kg: 1440 h, read-out: 60-day survivors (mice survived for 60 days/mice used) (converted)
Protocol: (B) Effect on the life span of mice implanted with leukemic cells of L-1210:
10^5 leukemic cells of L-1210 were inoculated intraperitoneally into a group of four or six male mice (BDF1 mice, body weight: 19-23 g). A test compound was dissolved in a physiological saline solution and administered intraperitoneally to the mice. The administration of the test compound was begun 24 hours after the inoculation of the leukemic cells and performed once a day for 5 days. The survival days of the treated mice were observed.
^a T = the mean survival days of the treated mice
C = the mean survival days of the untreated mice (control group of mice)
^b ILS(Increase in Life Span) =-
^c 60day survivors = the number of mice survived for 60 days/the

[1] = system: Ehrlich ascites carcinoma; assay: Preventive effect against the growth of Ehrlich ascites tumor (Method A); format: in vivo, mice (female ICR); details: for inhibition in vivo at 0.09 mg/kg: 0.09 mg/kg/day i.p.; for inhibition in vivo at 0.19 mg/kg: 0.19 mg/kg/day i.p.; for inhibition in vivo at 0.39 mg/kg: 0.39 mg/kg/day i.p.; for inhibition in vivo at 0.78 mg/kg: 0.78 mg/kg/day i.p.; for inhibition in vivo at 3.12 mg/kg: 3.12 mg/kg/day i.p.; for inhibition in vivo at 12.5 mg/kg: 12.5 mg/kg/day i.p.; for minimal effective dose: minimum dose with 100% inhibition of ascites tumor, unit from dose column, read-out: MED (Minimum Effective Dose); for inhibition in vivo at 1.56 mg/kg: 1.56 mg/kg/day i.p.; for inhibition in vivo at 25 mg/kg: 25 mg/kg/day i.p.
Protocol: (§1) (A) Preventive effect against the growth of Ehrlich ascites tumor:
(§2) 10^6 tumor cells of Ehrlich ascites carcinoma were inoculated intraperitoneally into a group of five femal mice (ICR mice, body weight: 19-23 g). A test compound was dissolved in a physiological saline solution [In the case where CCNU was employed as the test compound, said compound was suspended in a physiological saline solution containing 0.1% NIKKOL HCO-60 (trademark; a surface active agent manufactured by Nikko Chemicals Co. Ltd.)] and administered intraperioneally to the mice. The administration of the test compound was begun 24 hours after the inoculation of the tumor cells and performed once a day for 5 days. The volume of ascites in the treated mice were measured after 7 days of the experiment.
(§3) ^a T = the average volume of ascites in the treated mice
(§4) C = the average volume of ascites in the untreated mice (control group of
(§5) 100% inhibition for the growth of Ehrlich ascites tumor in mice without
(§6) causing the death of said mice)
(§7) 100% inhibition for the growth of said ascites tumor)
(§8) ^e Therapeutic index = MTD/MED
(§9) *the number of mice died/the number of mice used

[2] = as above; format: in vivo, mice (female ICR); details: mouse, in vivo, ip; maximum dose with 100% inhibition of Ehrlich ascites tumor without causing death; unit from dose column; read-out: MTD (Maximum Tolerated Dose)
Protocol: as §1, §2, §3, §4, §5, §6, §7, §8, §9

[3] = 100 mg/kg/day i.p., once a day for 5 days
[4] = Mus musculus, Ehrlich, ip, 168 h, once a day for 5 days, read-out: Inhibition ratio
[5] = Mus musculus, Ehrlich, ip, 168 h, 50 mg/kg/day i.p., once a day for 5 days, read-out: Inhibition ratio
[6] = Mus musculus, Ehrlich, ip, 168 h

| SMILES | ILS at 6.25 mg/kg (Leukemia L-1210) [%] | ILS at 12.5 mg/kg (Leukemia L-1210) [%] | ILS at 25 mg/kg (Leukemia L-1210) [%] | ILS at 50 mg/kg (Leukemia L-1210) [%] | responders at 6.25 mg/kg (Leukemia L-1210) [%] | responders at 12.5 mg/kg (Leukemia L-1210) [%] | responders at 25 mg/kg (Leukemia L-1210) [%] | responders at 50 mg/kg (Leukemia L-1210) [%] | Toxic (number of mice died/number of mice used) [1, 3] | Therapeutic index (MTD/MED) [1] | inhibition in vivo at 0.09 mg/kg [1, 4] [%] | inhibition in vivo at 0.19 mg/kg [1, 4] [%] | inhibition in vivo at 0.39 mg/kg [1, 4] [%] | inhibition in vivo at 0.78 mg/kg [1, 4] [%] | inhibition in vivo at 3.12 mg/kg [1, 4] [%] | inhibition in vivo at 12.5 mg/kg [1, 4] [%] | inhibition in vivo at 50 mg/kg [1, 5] [%] | minimal effective dose [1, 6] [mg/kg/day] | MTD at 168 h [2] [mg/kg/day] | inhibition in vivo at 1.56 mg/kg [1, 4] [%] | other results |
| --- | --- | --- | --- | --- | --- | --- | --- | --- | --- | --- | --- | --- | --- | --- | --- | --- | --- | --- | --- | --- | --- |
| COCCCN(C(=O)N(CCCl)N=O)C1OC[C@H](O)[C@H](O)[C@H]1O (stereo partly drawn) [Compound 4, 1-(2-chloroethyl)-1-nitroso-3-(3-methoxy-n-propyl)-3-(L-arabinopyranosyl)urea] | 97.2 | > 324 | > 733 | > 733 | 0 | 33.3 | 100 | 100 | 2/5 | 128 | 18.4 | 44.9 | 100 | 100 | 100 | 100 | 100 | 0.39 | 50 |  | therapeutic index (M.T.D./M.E.D.) relative to that of GANU ([1]; Ehrlich ascites tumor, greater than that of GANU): 4 times |
| COC(C)CN(C(=O)N(CCCl)N=O)C1OC[C@H](O)[C@H](O)[C@H]1O (stereo partly drawn) [Compound 5, 1-(2-chloroethyl)-1-nitroso-3-(2-methoxy-n-propyl)-3-(L-arabinopyranosyl)urea] | 91.7 | > 529 | > 733 | > 678 | 0 | 75 | 100 | 75 | 4/5 | 128 | 8.2 | 36.7 | 100 | 100 | 100 | 100 | 100 | 0.39 | 50 |  | increase in the average life span (Leukemia L-1210; daily dose 0.5 mg/kg i.p., five consecutive days): about 30% |
| COCCN(C(=O)N(CCCl)N=O)C1OC[C@@H](O)[C@H](O)[C@H]1O (stereo partly drawn) [Compound 10, 1-(2-chloroethyl)-1-nitroso-3-(2-methoxyethyl)-3-(D-xylopyranosyl)urea] |  |  |  |  |  |  |  |  |  | 64 | 25 | 89.6 | 100 |  |  |  |  | 0.39 | 25 | 100 | Toxic (number of mice died/number of mice used) ([1]; 50 mg/kg/day i.p., once a day for 5 days): 2/5; inhibition in vivo at 0.04 mg/kg ([1]; Mus musculus, Ehrlich, ip, 168 h, 0.04 mg/kg/day i.p., once a day for 5 days, read-out: Inhibition ratio): 2.1%; inhibition in vivo at 6.23 mg/kg ([1]; Mus musculus, Ehrlich, ip, 168 h, 6.23 mg/kg/day i.p., once a day for 5 days, read-out: Inhibition ratio): 100%; inhibition in vivo at 25 mg/kg [1, 4]: 100% |
| COCCN(C(=O)N(CCCl)N=O)C1O[C@H](CO)[C@@H](O)[C@H](O)[C@@H]1O (stereo partly drawn) [Compound 11, 1-(2-chloroethyl)-1-nitroso-3-(2-methoxyethyl)-3-(D-mannopyranosyl)urea] |  |  |  |  |  |  |  |  |  | 64 |  |  |  |  | 64 |  |  | 6.25 | 400 | 14 | Toxic (number of mice died/number of mice used) ([1]; 800 mg/kg/day i.p., once a day for 5 days): 5/5; inhibition in vivo at 6.25 mg/kg ([1]; Mus musculus, Ehrlich, ip, 168 h, 6.25 mg/kg/day i.p., once a day for 5 days, read-out: Inhibition ratio): 100%; inhibition in vivo at 25 mg/kg [1, 4]: 100%; inhibition in vivo at 100 mg/kg ([1]; Mus musculus, Ehrlich, ip, 168 h, 100 mg/kg/day i.p., once a day for 5 days, read-out: Inhibition ratio): 100%; inhibition in vivo at 400 mg/kg ([1]; Mus musculus, Ehrlich, ip, 168 h, 400 mg/kg/day i.p., once a day for 5 days, read-out: Inhibition ratio): 100% |
